Measured values published in patent US20240400555A1 (Initial Therapeutics, Inc., priority 2023, published 2024).
Like-named read-outs stand apart in the source and are kept apart here.

System: MV-4-11 cells
Test: Cell Viability Assay in MV-4-11 Cells
Assay type: cell-based
Details: Homo sapiens, MV4-11, 72 h
Method in brief: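 MV-4-11 cells at 7,000/well in IMDM with 10% FBS, exposed to compound for 72 h. Viability by CellTiter-Glo luminescence, normalized to DMSO as 100%, fitted with a four-parameter curve.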

[1] = MV-4-11 cells, 72 h, Cell-Titer Glo, read-out: IC50

Compound: CCc1nnc(-c2ccc(C(=O)N(c3nccc4cc(F)cc(C)c34)[C@@H]3CCCNC3)nc2)s1 [Example 672, (R)-5-(5-ethyl-1,3,4-thiadiazol-2-yl)-N-(6-fluoro-8-methylisoquinolin-1-yl)-N-(piperidin-3-yl)picolinamide]
- IC50 [1]: 180 nM

Compound: CCc1nnc(-c2ccc(C(=O)N(c3nccc4cccc(C)c34)[C@@H]3CCCNC3)nc2)s1 [Example 673, 5-(5-ethyl-1,3,4-thiadiazol-2-yl)-N-(8-methyl-1-isoquinolyl)-N-[(3R)-3-piperidyl]pyridine-2-carboxamide]
- IC50 [1]: 240 nM

Compound: C#Cc1csc2ccnc(N(C(=O)c3ccc(-c4cn(C)nn4)cc3F)[C@@H]3CCCNC3)c12 [Example 674, (R)—N-(3-ethynylthieno[3,2-c]pyridin-4-yl)-2-fluoro-4-(1-methyl-1H-1,2,3-triazol-4-yl)-N-(piperidin-3-yl)benzamide]
- IC50 [1]: 100 nM

Compound: C=C(C)c1csc2c(N(C(=O)c3ccc(-c4cn(C)nn4)cc3F)[C@@H]3CCCNC3)nccc12 [Example 675, 2-fluoro-N-(3-isopropenylthieno[2,3-c]703yridine-7-yl)-4-(1-methyltriazol-4-yl)-N-[(3R)-3-piperidyl]benzamide]
- IC50: > 1000 nM

Compound: C#Cc1csc2c(N(C(=O)c3ccc(-c4cn(C)nn4)cc3F)[C@@H]3CCCNC3)nccc12 [Example 676, N-(3-ethynylthieno[2,3-c]704yridine-7-yl)-2-fluoro-4-(1-methyltriazol-4-yl)-N-[(3R)-3-piperidyl]benzamide]
- IC50 [1]: 190 nM

Compound: Cc1csc2c(N(C(=O)c3ccc(-c4cn(C)nn4)cc3F)[C@@H]3CCCNC3)nccc12 [Example 677, (R)-2-fluoro-4-(1-methyl-1H-1,2,3-triazol-4-yl)-N-(3-methylthieno[2,3-c]pyridin-7-yl)-N-(piperidin-3-yl)benzamide]
- IC50 [1]: 1400 nM

Compound: Cn1cc(-c2ccc(C(=O)N(c3nccc4c(Cl)csc34)[C@@H]3CCCNC3)c(F)c2)nn1 [Example 678, N-(3-chlorothieno[2,3-c]705yridine-7-yl)-2-fluoro-4-(1-methyltriazol-4-yl)-N-[(3R)-3-piperidyl]benzamide]
- IC50 [1]: 350 nM

Compound: Cc1cccc2ccnc(N(C(=O)c3ccc(Nc4nccc(C5CCC(O)CC5)n4)cc3F)[C@@H]3CCCNC3)c12 (stereo partly drawn) [Example 679, (R)-2-fluoro-4-((4-(4-hydroxycyclohexyl)pyrimidin-2-yl)amino)-N-(8-methylisoquinolin-1-yl)-N-(piperidin-3-yl)benzamide]
- IC50 [1]: 200 nM

Compound: Cc1cccc2ccnc(N(C(=O)c3ccc(Nc4nccc(N5CC(O)C5)n4)cc3F)[C@@H]3CCCNC3)c12 [Example 680, (R)-2-fluoro-4-((4-(3-hydroxyazetidin-1-yl)pyrimidin-2-yl)amino)-N-(8-methylisoquinolin-1-yl)-N-(piperidin-3-yl)benzamide]
- IC50 [1]: 75 nM

Compound: Cc1cccc2ccnc(N(C(=O)c3ccc(Nc4nccc(C5=CCC(O)CC5)n4)cc3F)[C@@H]3CCCNC3)c12 (stereo partly drawn) [Example 681, 2-fluoro-4-((4-(4-hydroxycyclohex-1-en-1-yl)pyrimidin-2-yl)amino)-N-(8-methylisoquinolin-1-yl)-N—((R)-piperidin-3-yl)benzamide]
- IC50 [1]: 32 nM

Compound: Cc1cccc2ccnc(N(C(=O)c3ccc(Nc4nccc(C5=CCN(C)CC5)n4)cc3F)[C@@H]3CCCNC3)c12 [Example 682, (R)-2-fluoro-4-((4-(1-methyl-1,2,3,6-tetrahydropyridin-4-yl)pyrimidin-2-yl)amino)-N-(8-methylisoquinolin-1-yl)-N-(piperidin-3-yl)benzamide]
- IC50 [1]: 83 nM

Compound: Cc1cccc2ccnc(N(C(=O)c3ccc(Nc4nccc(Nc5ccncc5)n4)cc3F)[C@@H]3CCCNC3)c12 [Example 683, (R)-2-fluoro-N-(8-methylisoquinolin-1-yl)-N-(piperidin-3-yl)-4-((4-(pyridin-4-ylamino)pyrimidin-2-yl)amino)benzamide]
- IC50 [1]: 210 nM

Compound: Cc1cccc2ccnc(N(C(=O)c3ccc(Nc4nccc(N5CC[C@@H](O)C5)n4)cc3F)[C@@H]3CCCNC3)c12 [Example 684, 2-fluoro-4-((4-((R)-3-hydroxypyrrolidin-1-yl)pyrimidin-2-yl)amino)-N-(8-methylisoquinolin-1-yl)-N—((R)-piperidin-3-yl)benzamide]
- IC50 [1]: 59 nM

Compound: Cc1cccc2ccnc(N(C(=O)c3ccc(Nc4nccc(C5=CCOCC5)n4)cc3F)[C@@H]3CCCNC3)c12 [Example 685, (R)-4-((4-(3,6-dihydro-2H-pyran-4-yl)pyrimidin-2-yl)amino)-2-fluoro-N-(8-methylisoquinolin-1-yl)-N-(piperidin-3-yl)benzamide]
- IC50 [1]: 49 nM

Compound: Cc1cccc2ccnc(N(C(=O)c3ccc(Nc4nccc(CN5CCNCC5)n4)cc3F)[C@@H]3CCCNC3)c12 [Example 686, (R)-2-fluoro-N-(8-methylisoquinolin-1-yl)-4-((4-(piperazin-1-ylmethyl)pyrimidin-2-yl)amino)-N-(piperidin-3-yl)benzamide]
- IC50 [1]: 460 nM

Compound: Cc1cccc2ccnc(N(C(=O)c3ccc(Nc4nccc(CN5CCCCC5)n4)cc3F)[C@@H]3CCCNC3)c12 [Example 687, (R)-2-fluoro-N-(8-methylisoquinolin-1-yl)-4-((4-(piperidin-1-ylmethyl)pyrimidin-2-yl)amino)-N-(piperidin-3-yl)benzamide]
- IC50 [1]: 40 nM

Compound: CNC(=O)c1ccc2c(N(C(=O)c3ccc(-c4cn(C)nn4)cc3F)[C@@H]3CCCNC3)nccc2c1 [Example 688, (R)-1-(2-fluoro-4-(1-methyl-1H-1,2,3-triazol-4-yl)-N-(piperidin-3-yl)benzamido)-N-methylisoquinoline-6-carboxamide]
- IC50: > 4500 nM

Compound: Cc1cn(-c2ccc(C(=O)N(c3nccc4scc(C)c34)[C@@H]3CCCNC3)cc2)nn1 [Example 689, (R)-4-(4-methyl-1H-1,2,3-triazol-1-yl)-N-(3-methylthieno[3,2-c]pyridin-4-yl)-N-(piperidin-3-yl)benzamide]
- IC50 [1]: 120 nM

Compound: Cc1cn(-c2ccc(C(=O)N(c3nccc4scc(C)c34)[C@@H]3CCCNC3)c(F)c2)nn1 [Example 690, (R)-2-fluoro-4-(4-methyl-1H-1,2,3-triazol-1-yl)-N-(3-methylthieno[3,2-c]pyridin-4-yl)-N-(piperidin-3-yl)benzamide]
- IC50 [1]: 150 nM

Compound: Cc1cn(-c2ccc(C(=O)N(c3nccc4cc(Cl)cc(C)c34)[C@@H]3CCCNC3)c(F)c2)nn1 [Example 691, (R)—N-(6-chloro-8-methylisoquinolin-1-yl)-2-fluoro-4-(4-methyl-1H-1,2,3-triazol-1-yl)-N-(piperidin-3-yl)benzamide]
- IC50 [1]: 110 nM

Compound: C=C(C)c1ccc2c(N(C(=O)c3ccc(-c4cn(C)nn4)cc3F)[C@@H]3CCCNC3)nccc2c1 [Example 692, (R)-2-fluoro-4-(1-methyl-1H-1,2,3-triazol-4-yl)-N-(piperidin-3-yl)-N-(6-(prop-1-en-2-yl)isoquinolin-1-yl)benzamide]
- IC50 [1]: 350 nM

Compound: Cc1cccc2ccnc(N(C(=O)c3ccc(Nc4nccc(NCc5nccs5)n4)cc3F)[C@@H]3CCCNC3)c12 [Example 693, (R)-2-fluoro-N-(8-methylisoquinolin-1-yl)-N-(piperidin-3-yl)-4-((4-((thiazol-2-ylmethyl)amino)pyrimidin-2-yl)amino)benzamide]
- IC50 [1]: 120 nM

Compound: Cc1cccc2ccnc(N(C(=O)c3ccc(Nc4nccc(NCc5cnn(C)c5)n4)cc3F)[C@@H]3CCCNC3)c12 [Example 694, (R)-2-fluoro-4-((4-(((1-methyl-1H-pyrazol-4-yl)methyl)amino)pyrimidin-2-yl)amino)-N-(8-methylisoquinolin-1-yl)-N-(piperidin-3-yl)benzamide]
- IC50 [1]: 46 nM

Compound: Cc1cccc2ccnc(N(C(=O)c3ccc(Nc4nccc(NCc5ccccn5)n4)cc3F)[C@@H]3CCCNC3)c12 [Example 695, (R)-2-fluoro-N-(8-methylisoquinolin-1-yl)-N-(piperidin-3-yl)-4-((4-((pyridin-2-ylmethyl)amino)pyrimidin-2-yl)amino)benzamide]
- IC50 [1]: 130 nM

Compound: Cc1cccc2ccnc(N(C(=O)c3ccc(Nc4nccc(NCc5cccnc5)n4)cc3F)[C@@H]3CCCNC3)c12 [Example 696, (R)-2-fluoro-N-(8-methylisoquinolin-1-yl)-N-(piperidin-3-yl)-4-((4-((pyridin-3-ylmethyl)amino)pyrimidin-2-yl)amino)benzamide]
- IC50 [1]: 200 nM

Compound: Cc1cccc2ccnc(N(C(=O)c3ccc(Nc4nccc(NCc5ccncc5)n4)cc3F)[C@@H]3CCCNC3)c12 [Example 697, (R)-2-fluoro-N-(8-methylisoquinolin-1-yl)-N-(piperidin-3-yl)-4-((4-((pyridin-4-ylmethyl)amino)pyrimidin-2-yl)amino)benzamide]
- IC50 [1]: 200 nM

Compound: CCc1nnc(-c2ccc(C(=O)N(c3nccc4scc(C)c34)[C@@H]3CCCNC3)c(F)c2)s1 [Example 698, (R)-4-(5-ethyl-1,3,4-thiadiazol-2-yl)-2-fluoro-N-(3-methylthieno[3,2-c]pyridin-4-yl)-N-(piperidin-3-yl)benzamide]
- IC50 [1]: 170 nM

Compound: Cc1nnc(-c2ccc(C(=O)N(c3nccc4scc(C)c34)[C@@H]3CCCNC3)c(F)c2)o1 [Example 699, (R)-2-fluoro-4-(5-methyl-1,3,4-oxadiazol-2-yl)-N-(3-methylthieno[3,2-c]pyridin-4-yl)-N-(piperidin-3-yl)benzamide]
- IC50 [1]: 130 nM

Compound: CCc1nnc(-c2ccc(C(=O)N(c3nccc4cc(Cl)cc(C)c34)[C@@H]3CCCNC3)c(F)c2)s1 [Example 700, (R)—N-(6-chloro-8-methylisoquinolin-1-yl)-4-(5-ethyl-1,3,4-thiadiazol-2-yl)-2-fluoro-N-(piperidin-3-yl)benzamide]
- IC50 [1]: 210 nM

Compound: Cc1cc(C)c2c(N(C(=O)c3ccc(-c4nnc(C)s4)cn3)[C@@H]3CCCNC3)nccc2c1 [Example 701, (R)—N-(6,8-dimethylisoquinolin-1-yl)-5-(5-methyl-1,3,4-thiadiazol-2-yl)-N-(piperidin-3-yl)picolinamide]
- IC50 [1]: 150 nM

Compound: Cc1cc(C)c2c(N(C(=O)c3ccc(-c4cn(C)nn4)cc3F)[C@@H]3CCCNC3)nccc2c1 [Example 702, (R)—N-(6,8-dimethylisoquinolin-1-yl)-2-fluoro-4-(1-methyl-1H-1,2,3-triazol-4-yl)-N-(piperidin-3-yl)benzamide]
- IC50 [1]: 25 nM
